Data set [1] has as its system KB-3 human carcinoma cell line. As to the kind of experiment: MTT colorimetric assay of KB-3 cell viability. In kind it is cell-based. Conditions: for pIC50: KB-3 cells, 96 h treatment, triplicate, read-out: IC50, inhibition of KB-3 cell survival assessed by MTT viability assay. The protocol:
The human KB-3 carcinoma cell line was used to perform the MTT colorimetric assay of cell viability.(22-24) Cells were treated with increasing concentrations of compounds to assess their growth inhibitory properties. IC50 values (concentration of the drug required to reduce cell viability by 50%) ranged from 1 to >100 μM (Table 1).
Inhibition of cell proliferation was assessed by the MTT assay. This assay is based on the ability of a mitochondrial dehydrogenase enzyme from viable cells to cleave the tetrazolium rings of the pale yellow 3-(4,5-dimethylthiazol-2-yl)-2,5-diphenyltetrazolium bromide (MTT) and form a dark blue formazan crystal product which is largely impermeable to cell membranes, thus resulting in its accumulation within healthy cells.(22) Solubilization of the cells by the addition of solvent results in the liberation of the crystals which are solubilized. The level of the formazan product created is directly proportional to the number of living cells.(23,24)
All stock solutions of compounds were made at 10 mM in dimethyl sulfoxide (DMSO). DMSO and MTT were from Sigma Chemical Co. (St. Louis, Mo.). Cell culture reagents were obtained from Life Technologies (Carlsbad, Calif.). The KB-3 human carcinoma cell line was maintained in monolayer culture at 37° C. and 5% CO2 in Dulbecco's Modified Eagle's Medium, supplemented with 10% fetal bovine serum, 2 mM L-glutamine, 50 units/mL penicillin, and 50 μg/mL streptomycin.
KB-3 cells (2000/well) were plated in 96-well dishes, and after 24 h were treated with 0.1 nM-100 μM of the compound in question. […] After 96 h, cells were incubated with 50 μg MTT/well/0.2 mL for 4 h at 37° C., the media was removed, and the formazan crystals were dissolved in 0.15 mL of DMSO. Absorbance at 570 nm was measured with an ELx800™ Microplate Reader (Bio Tek Instruments, Inc., Winooski, Vt.). All treatments were performed in triplicate. Results are shown in FIGS. 1A-D as a percentage of control samples (mean±SD). IC50 is the concentration that reduced survival to 50% of the control (no drug).

The subject of data set [2] is L1210 cell line. Conditions: reported, cited from earlier work.
For data set [3], the system named is PC-3 prostate cancer cell line. Put plainly: NCI 60-cell line single dose assay, PC-3. In kind it is cell-based.
Data set [4] concerns RPMI-8226 leukemia cell line. As to the kind of experiment: NCI 60-cell line single dose assay, RPMI-8226. In kind it is cell-based.
The conditions of data set [5]: reported in the literature; cited from earlier work.
For data set [6], the system named is entire leukemia panel. As to the kind of experiment: NCI 60-cell line single dose assay, leukemia panel. Format: cell-based.
The subject of data set [7] is HOP-92 non-small cell lung cancer cell line. As to the kind of experiment: NCI 5-dose testing, HOP-92. Format: cell-based. As to conditions: 5-dose testing, read-out: LC50 (the source's name).
The subject of data set [8] is NCI-H522 non-small cell lung cancer cell line. Put plainly: NCI 60-cell line single dose assay, NCI-H522. In kind it is cell-based.
For data set [9], the system named is RPMI-8226 leukemia cell line. As to the kind of experiment: NCI 5-dose testing, RPMI-8226. Format: cell-based. As to conditions: 5-dose testing, read-out: LC50 (the source's name).
The subject of data set [10] is 60-cell line screening. As to the kind of experiment: NCI Developmental Therapeutics 60-cell line screening, single dose. Format: cell-based. Conditions: NCI 60-cell line screening.

pIC50: −log10 of the molar value. Converted amounts (≈) assume the structure as drawn. “And” between values parts separate entries of the source, which are not always exact repeats. Identical values can stand only once. Like-named read-outs stand apart in the source and are kept apart here. A value given as a limit tells only on which side of the number the result lay.

The values that follow come from patent publication US8450366B2, “Isobenzofuran analogs of sclerophytin A” (Board of Trustees of the University of Arkansas, priority 2009, dated 2013).

Turning to `C=C(C)[C@H]1CC=C(C)[C@@]2(O)[C@@H]1[C@H](c1cccc[n+]1C)O[C@@H]2C(=O)OC` [Compound 5i], in [1] (Homo sapiens, KB3), the pIC50 is less than 4.00. Turning to `C=C(C)C1CC=C(C)C2=COC(c3ccco3)C21` (centres unmarked) [Compound 10g], the negative-log IC50 (pIC50) in [1] is 5.70.

For `C=C(C)[C@H]1CC=C(C)[C@@]2(O)[C@@H]1[C@H](c1cccc(Cl)c1Cl)O[C@@H]2C(=O)OCC` [Compound 5c], the negative logarithm of the IC50 (pIC50) in data set [1] was 5.30. For `C=C(C)C1CC=C(C)C2=COC(c3ccccc3Br)C21` (centres unmarked) [Compound 10a], the pIC50 in data set [1] is 5.40. Consider `C=C1CC[C@H](C(C)C)[C@@H]2[C@H]1[C@H]1C[C@](C)(O)[C@@H](O)CC[C@@](C)(O)[C@@H]2O1` [Sclerophytin A], for which, in data set [2] (value in brackets, read-out: IC50, growth inhibitory activity against L1210), the negative-log IC50 (pIC50) is 8.52. Also, in data set [2], the “IC50, growth inhibitory activity against L1210” value is listed as 1.0 ng/mL (≈ 2.95 nM). `C=C(C)[C@H]1CC=C(C)[C@@]2(O)[C@@H]1[C@H](c1ccccc1Br)O[C@@H]2C(=O)OCC1CCCC1` [Compound 5a.iii]: in [1], the pIC50 was less than 4.00. For the compound `C=C(C)[C@H]1CC=C(C)[C@@]2(O)[C@@H]1[C@H](c1cccc(Br)c1)O[C@@H]2C(=O)OCC` [Compound 5b], the pIC50 in data set [1] was 5.52. The same measure, in the same setting: with `C=C(C)[C@H]1CC=C(C)[C@@]2(O)[C@@H]1[C@H](c1ccccc1Br)O[C@@H]2C(=O)O` [Compound 9] the figure was less than 4.00. Consider `C=C(C)[C@H]1CC(=O)C(C)=C2[C@@H](C(=O)OCC)O[C@@H](c3ccc(Cl)cc3Cl)[C@@H]21` [Compound 6d], for which the pIC50 in data set [1] is 5.52. Also, the “differential activity, single dose” value in [3] and in data set [4] was “significant differential activity” in each case. For `C=C(C)[C@H]1CC=C(C)[C@@]2(O)[C@@H]1[C@H](c1ccccc1Br)O[C@@H]2C(=O)OCC1CC1` [Compound 5a.ii], the negative logarithm of the IC50 (pIC50) in [1] is 4.30.

Consider `C=C(C)C1CC=C(C)C2=COC(c3cccc4ccccc34)C21` (centres unmarked) [Compound 10e], for which the pIC50 in data set [1] is less than 4.00. Turning to `C=C(C)[C@H]1CC=C(C)[C@@]2(O)[C@@H]1[C@H](c1ccccn1)O[C@@H]2C(=O)OC` [Compound 5f], the pIC50 in [1] (Homo sapiens, KB3) is 4.00. As for `C=C(C)[C@H]1CC(=O)C(C)=C2[C@@H](C(=O)OCC)O[C@@H](c3cccc(Br)c3)[C@@H]21` [Compound 6b], in data set [1], the negative-log IC50 (pIC50) is 4.52.

On to `CO[C@]12C=C[C@](C)(O1)[C@@H](OC(=O)/C=C/c1cn(C)cn1)C[C@H]1C(C)=CC[C@H](C(C)C)[C@H]1/C=C\2CO[C@@H]1OC[C@@H](O)[C@@H](O)[C@@H]1OC(C)=O` [Eleutherobin], for which the anti-mitotic activity entry in data set [5] is reported as “taxol-like anti-mitotic activity”.

For the compound `C=C(C)[C@H]1CC(=O)C(C)=C2[C@@H](C(=O)OCC)O[C@@H](c3cccc(Cl)c3Cl)[C@@H]21` [Compound 6c], the pIC50 in [1] was 5.30. As to `C=C(C)[C@H]1CC=C(C)[C@@]2(O)[C@@H]1[C@H](c1ccccc1Br)O[C@@H]2C(=O)OCC` [Compound 5a], in [1], the pIC50 is ~4.70 and 4.70.

Regarding `C=C(C)C1CC=C(C)C2=COC(c3ccccc3F)C21` (centres unmarked) [Compound 10h], the negative logarithm of the IC50 (pIC50) in data set [1] is 6.00. For the same compound, the “differential activity, single dose” value in data set [6] and in data set [8] was “significant differential activity” throughout. Moreover, the CC50 in data set [7] was 26.8 µM; in data set [9], 9.36 µM. As to `COC(=O)/C1=C/[C@@H]2[C@@H](C(C)C)CC=C(C)[C@@H]2C[C@H](OC(=O)/C=C/c2cn(C)cn2)[C@]2(C)C=C[C@@]1(O)O2` [sarcodictyins A, sarcodictyin A], the anti-mitotic activity result in data set [5] was “taxol-like anti-mitotic activity”. As for `C=C(C)[C@H]1CC=C(C)[C@@]2(O)[C@@H]1[C@H](c1ccccc1Br)O[C@@H]2C(=O)OC` [Compound 5a.i], the pIC50 in [1] is 5.30.

Consider sarcodictyin B [sarcodictyins B], for which, in data set [5], the anti-mitotic activity result is given as “taxol-like anti-mitotic activity”. For the compound `C=C(C)[C@H]1CC(=O)C(C)=C2[C@@H](C(=O)OCC)O[C@@H](c3ccccc3Br)[C@@H]21` [Compound 6a], in data set [1], the negative logarithm of the IC50 (pIC50) is ~4.15 and 4.15. As to `C=C(C)[C@H]1CC=C(C)[C@@]2(O)[C@@H]1[C@H](c1ccc(Cl)cc1Cl)O[C@@H]2C(=O)OCC` [Compound 5d], the negative logarithm of the IC50 (pIC50) in [1] was 5.52. For the same compound, in data set [10], the “activity in single dose assays” value is “no significant activity”. In the case of `C=C(C)[C@H]1CC=C(C)[C@@]2(O)[C@@H]1[C@H](c1cccc3ccccc13)O[C@@H]2C(=O)OC` [Compound 5e], in data set [1] (KB-3 IC50, entry 8 vs. entry 18), the “fold more active than the corresponding diene 10e” value is given as “at least 10 fold”. For the same compound, in data set [1], the negative logarithm of the IC50 (pIC50) was 5.00.
